Measurements published in patent publication US12344610B2, “APOL1 inhibitors and methods of use” (Maze Therapeutics, Inc., priority 2022, dated 2025).

What was measured:
Type in all cases: cell-based
[1] = system: Trypanosoma brucei Lister 427 VSG221 with APOL1 G0 recombinant protein; assay: APOL1 G0 trypanosome cell rescue assay (Example B5); settings: Trypanosoma brucei, 20 h, read-out: APOL1 G0 Trypanosome Rescue EC50, Trypanosoma brucei Lister 427 VSG221 with APOL1 G0 recombinant protein, 20 hours, CellTiter-Glo; geometric mean of at least 2 assay runs; † = single assay run
Outline: (§1)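 Recombinant APOL1 protein, dispensed from a 2 μg/mL stock, and 250 T. brucei per well were co-incubated with test compound (0.4% DMSO) for 20 h. Viability: CellTiter-Glo luminescence.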

[2] = system: Trypanosoma brucei Lister 427 VSG221 with APOL1 G1 recombinant protein; assay: APOL1 G1 trypanosome cell rescue assay (Example B5); settings: Trypanosoma brucei, 20 h, read-out: APOL1 G1 Trypanosome Rescue EC50, Trypanosoma brucei Lister 427 VSG221 with APOL1 G1 recombinant protein, 20 hours, CellTiter-Glo; geometric mean of at least 2 assay runs; † = single assay run
Outline: as §1

[3] = system: HEK293 clonal cell line overexpressing APOL1 G1; assay: APOL1 G1 HEK293 cell rescue assay (Example B3); settings: Homo sapiens, HEK293, HEK293 clonal line overexpressing APOL1 G1; geometric mean of at least 2 runs; † = single run; ¥ = concentration at 50% rescue estimated (no sigmoidal curve)
Outline: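 Rescue of cell death caused by APOL1 G1 overexpression was measured in a clonal HEK293 line. Compounds were tested in duplicate on one plate, and EC50s were geometric means across at least two runs on different days. Some values are estimated 50%-rescue concentrations where curve fitting failed.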

[4] = system: Trypanosoma brucei Lister 427 VSG221 with APOL1 G2 recombinant protein; assay: APOL1 G2 trypanosome cell rescue assay (Example B5); settings: Trypanosoma brucei, 20 h, read-out: APOL1 G2 Trypanosome Rescue EC50, Trypanosoma brucei Lister 427 VSG221 with APOL1 G2 recombinant protein, 20 hours, CellTiter-Glo; geometric mean of at least 2 assay runs; † = single assay run
Outline: as §1

Structure (SMILES) | EC50 [1] [nM] | EC50 [2] [nM] | EC50 [3] [nM] | EC50 [4] [nM]
CS(=O)(=O)N1CCCc2cc(OCCN3CCC4(CC3)C(=O)Nc3ccc(Cl)cc34)ccc21 [Compound 53, 5-chloro-1′-{2-[(1-methanesulfonyl-1,2,3,4-tetrahydroquinolin-6-yl)oxy]ethyl}-1,2-dihydrospiro[indole-3,4′-piperidin]-2-one] | 156 | 157 | 219 | 47.8
CC(=O)N1CCCc2cc(OCCN3CCC4(CC3)C(=O)Nc3ccc(Cl)cc34)ccc21 [Compound 56, 1′-{2-[(1-acetyl-1,2,3,4-tetrahydroquinolin-6-yl)oxy]ethyl}-5-chloro-1,2-dihydrospiro[indole-3,4′-piperidin]-2-one] | 296 | 319 | 330 | 119
CC(=O)N1Cc2ccc(OCCN3CCC4(CC3)C(=O)Nc3ccc(Cl)cc34)cc2C1 [Compound 57, 1′-{2-[(2-acetyl-2,3-dihydro-1H-isoindol-5-yl)oxy]ethyl}-5-chloro-1,2-dihydrospiro[indole-3,4′-piperidin]-2-one] | 673 | 672 | 390 | 183
CNC(=O)N1CCCc2cc(OCCN3CCC4(CC3)C(=O)Nc3ccc(Cl)cc34)ccc21 [Compound 60, 6-(2-{5-chloro-2-oxo-1,2-dihydrospiro[indole-3,4′-piperidin]-1′-yl}ethoxy)-N-methyl-1,2,3,4-tetrahydroquinoline-1-carboxamide] | 189 | 228 | 183 | 66
O=C1Nc2ccc(Cl)cc2C12CCN(CCOc1ccc3nccnc3c1)CC2 [Compound 62, 5-chloro-1′-[2-(quinoxalin-6-yloxy)ethyl]-1,2-dihydrospiro[indole-3,4′-piperidin]-2-one] | 407 | 390 | 433 | 120
CS(=O)(=O)c1ccc(OCCN2CCC3(CC2)C(=O)Nc2ccc(Cl)cc23)cc1F [Compound 63, 5-chloro-1′-[2-(3-fluoro-4-methanesulfonylphenoxy)ethyl]-1,2-dihydrospiro[indole-3,4′-piperidin]-2-one] | 118 | 164 | 160 | 40.9
CS(=O)(=O)c1ccc(OCCN2CCC3(CC2)C(=O)Nc2ccc(Cl)cc23)cn1 [Compound 64, 5-chloro-1′-{2-[(6-methanesulfonylpyridin-3-yl)oxy]ethyl}-1,2-dihydrospiro[indole-3,4′-piperidin]-2-one] | 503 | 712 | 516 | 167
CN1C(=O)Cc2cc(OCCN3CCC4(CC3)C(=O)Nc3ccc(Cl)cc34)ccc21 [Compound 65, 5-chloro-1′-{2-[(1-methyl-2-oxo-2,3-dihydro-1H-indol-5-yl)oxy]ethyl}-1,2-dihydrospiro[indole-3,4′-piperidin]-2-one] | 318 | 294 | 351 | 96.8
Cc1ccc2c(c1)C1(CCN(CCOc3ccc(S(C)(=O)=O)cc3)CC1)C(=O)N2 [Compound 66, 1′-[2-(4-methanesulfonylphenoxy)ethyl]-5-methyl-1,2-dihydrospiro[indole-3,4′-piperidin]-2-one] | 246 | 322 | 323 | 97.6
Cn1ncc2cc(OCCN3CCC4(CC3)C(=O)Nc3ccc(Cl)cc34)ccc21 [Compound 68, 5-chloro-1′-{2-[(1-methyl-1H-indazol-5-yl)oxy]ethyl}-1,2-dihydrospiro[indole-3,4′-piperidin]-2-one] | 358 | 441 | 368 | 115
CS(=O)(=O)c1ccc(OCCN2CCC3(CC2)C(=O)Nc2ccc(Cl)cc23)cc1 [Compound 69, 5-chloro-1′-[2-(4-methanesulfonylphenoxy)ethyl]-1,2-dihydrospiro[indole-3,4′-piperidin]-2-one] | 153 | 184 | 311 | 46.5
